Earlier results on 4 compounds are cited in patent US20090093506A1, “Copper antagonist compositions” (priority 2007, published 2009).

Test in series [1]: not given
The source holds these as a separate data set.

For series [2] the following is noted: solution of the free base itself.

`CC(C)(S)[C@@H](N)C(=O)O` [Penicillamine, 3-mercapto-D-valine]: the solubility in acetone entry (acetone) is reported as “insoluble”. In addition, the solubility in alcohol entry (alcohol) was “slightly soluble”. For the same compound, the solubility in benzene result (benzene) is on record as “insoluble”. The “solubility in carbon tetrachloride” value (carbon tetrachloride) was “insoluble”. The solubility in ether result (ether) is on record as “insoluble”. The solubility in water entry (water) is recorded as “freely soluble”.

On to `CC(=O)[O-].CC(=O)[O-].[Zn+2]` [Zinc acetate], for which, in series [1] (patients with Wilson's disease), the “long-term or major side effects” value is listed as “has not shown any long-term or major side effects”.

As to `COCc1c(C(C)C)nc(C(C)C)c(/C=C/[C@@H](O)C[C@@H](O)CC(=O)O)c1-c1ccc(F)cc1` [cerivastatin], the rhabdomyolysis result in series [1] (patients receiving the drug, withdrawn from the U.S. market August 2001) is “seen to occur more often”.

As to `NCCNCCNCCN` [trientine, triethylenetetramine], the “pH of a solution” value in series [2] is 14.
